Measurements reported in PubChem BioAssay AID2060505 (Molecular Pharmacology Branch, DTP, NCI, 2025).

System: 633275-114-R-J1-PDC complex spheroids, viability
Assay: Anticancer human tumor 633275-114-R-J1-PDC patient-derived endometrial adenocarcinoma cell line growth inhibition [GQUAD]
Details: for IC50: curve of first compound; for viability, T/C: stronger effect = lower value; active means viability on the fitted dose curve at most 10% of control; inactive means the rest
Outline: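 Tumor cells were grown as complex spheroids with HUVEC endothelial cells and mesenchymal stem cells as stroma. G-quadruplex stabilizers were combined with targeted agents over half-log dilutions from near the clinical Cmax, or from 10 microM.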

[1] = second compound 0.0316 µM, first compound 0.000999 µM
[2] = second compound 0.0316 µM, first compound 0.00316 µM
[3] = second compound 0.0316 µM, first compound 0.00999 µM
[4] = second compound 0.0316 µM, first compound 0.0316 µM
[5] = second compound 0.0316 µM, first compound 0.0999 µM
[6] = second compound 0.0316 µM, first compound 0.316 µM
[7] = second compound 0.1 µM, first compound 0.000999 µM
[8] = second compound 0.1 µM, first compound 0.00316 µM
[9] = second compound 0.1 µM, first compound 0.00999 µM
[10] = second compound 0.1 µM, first compound 0.0316 µM
[11] = second compound 0.1 µM, first compound 0.0999 µM
[12] = second compound 0.1 µM, first compound 0.316 µM
[13] = second compound 0.316 µM, first compound 0.000999 µM
[14] = second compound 0.316 µM, first compound 0.00316 µM
[15] = second compound 0.316 µM, first compound 0.00999 µM
[16] = second compound 0.316 µM, first compound 0.0316 µM
[17] = second compound 0.316 µM, first compound 0.0999 µM
[18] = second compound 0.316 µM, first compound 0.316 µM
[19] = second compound 1 µM, first compound 0.000999 µM
[20] = second compound 1 µM, first compound 0.00316 µM
[21] = second compound 1 µM, first compound 0.00999 µM
[22] = second compound 1 µM, first compound 0.0316 µM
[23] = second compound 1 µM, first compound 0.0999 µM
[24] = second compound 1 µM, first compound 0.316 µM
[25] = second compound 3.16 µM, first compound 0.000999 µM
[26] = second compound 3.16 µM, first compound 0.00316 µM
[27] = second compound 3.16 µM, first compound 0.00999 µM
[28] = second compound 3.16 µM, first compound 0.0316 µM
[29] = second compound 3.16 µM, first compound 0.0999 µM
[30] = second compound 3.16 µM, first compound 0.316 µM
[31] = second compound 10 µM, first compound 0.000999 µM
[32] = second compound 10 µM, first compound 0.00316 µM
[33] = second compound 10 µM, first compound 0.00999 µM
[34] = second compound 10 µM, first compound 0.0316 µM
[35] = second compound 10 µM, first compound 0.0999 µM
[36] = second compound 10 µM, first compound 0.316 µM
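Further: spheroids exposed to the agents for seven days.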
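Wherever viability, T/C is given: percent of DMSO vehicle control viability which is 100%.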

CC[C@@]1(O)C(=O)OCc2c1cc1n(c2=O)Cc2cc3c(CN(C)C)c(O)ccc3nc2-1 + Cc1[nH]c2ccc(F)cc2c1-c1nc2c3cccnc3c3ncccc3c2[nH]1
73.1 nM: IC50 (second compound 1 µM)
83.9 nM: IC50 (second compound 0.1 µM)
46.3 nM: IC50 (second compound 3.16 µM)
74.4 nM: IC50 (second compound 0.316 µM)
43.4 nM: IC50 (second compound 10 µM)
inactive: viability, T/C [1] 98.6% | viability, T/C [2] 91.9% | viability, T/C [3] 86.8% | viability, T/C [4] 69.6% | viability, T/C [5] 43.9% | viability, T/C [6] 36.9% | viability, T/C [7] 93.8% | viability, T/C [8] 93.6% | viability, T/C [9] 87.7% | viability, T/C [10] 73.4% | viability, T/C [11] 45.3% | viability, T/C [12] 35.8% | viability, T/C [13] 94% | viability, T/C [14] 99.1% | viability, T/C [15] 88.2% | viability, T/C [16] 71.2% | viability, T/C [17] 41.8% | viability, T/C [18] 36.5% | viability, T/C [19] 90.4% | viability, T/C [20] 91.8% | viability, T/C [21] 79.3% | viability, T/C [22] 68% | viability, T/C [23] 41.9% | viability, T/C [24] 36.3% | viability, T/C [25] 71.7% | viability, T/C [26] 70.4% | viability, T/C [27] 69.1% | viability, T/C [28] 56.5% | viability, T/C [29] 37.1% | viability, T/C [30] 33.2% | viability, T/C [31] 66.5% | viability, T/C [32] 74.4% | viability, T/C [33] 71% | viability, T/C [34] 54.6% | viability, T/C [35] 36.5% | viability, T/C [36] 29.7%
79.9 nM: IC50 (second compound 0.0316 µM)

CCc1c2c(nc3ccc(O)cc13)-c1cc3c(c(=O)n1C2)COC(=O)[C@]3(O)CC + Cc1[nH]c2ccc(F)cc2c1-c1nc2c3cccnc3c3ncccc3c2[nH]1
2.27 nM: IC50 (second compound 1 µM)
1.41 nM: IC50 (second compound 10 µM)
2.44 nM: IC50 (second compound 0.0316 µM)
3.09 nM: IC50 (second compound 0.1 µM)
inactive: viability, T/C [1] 69.7% | viability, T/C [2] 42.2% | viability, T/C [3] 36.2% | viability, T/C [4] 31.7% | viability, T/C [5] 30% | viability, T/C [6] 24.7% | viability, T/C [7] 71.1% | viability, T/C [8] 47.1% | viability, T/C [9] 37.2% | viability, T/C [10] 34.3% | viability, T/C [11] 27.3% | viability, T/C [12] 22.3% | viability, T/C [13] 68.8% | viability, T/C [14] 44.2% | viability, T/C [15] 37.5% | viability, T/C [16] 31.4% | viability, T/C [17] 28% | viability, T/C [18] 22.4% | viability, T/C [19] 62.6% | viability, T/C [20] 43.5% | viability, T/C [21] 35.1% | viability, T/C [22] 32.3% | viability, T/C [23] 27.5% | viability, T/C [24] 23.4% | viability, T/C [25] 57.5% | viability, T/C [26] 38.9% | viability, T/C [27] 33.2% | viability, T/C [28] 30.8% | viability, T/C [29] 27.6% | viability, T/C [30] 25.8% | viability, T/C [31] 55.2% | viability, T/C [32] 37.7% | viability, T/C [33] 33% | viability, T/C [34] 29.5% | viability, T/C [35] 24.8% | viability, T/C [36] 23.7%
2.7 nM: IC50 (second compound 0.316 µM)
1.62 nM: IC50 (second compound 3.16 µM)

COc1cc(C2c3cc4c(cc3C(OC3OC5COC(C)OC5C(O)C3O)C3COC(=O)C23)OCO4)cc(OC)c1O (stereo unspecified) + Cc1[nH]c2ccc(F)cc2c1-c1nc2c3cccnc3c3ncccc3c2[nH]1
358 nM: IC50 (second compound 1 µM)
446 nM: IC50 (second compound 0.0316 µM)
158 nM: IC50 (second compound 3.16 µM)
429 nM: IC50 (second compound 0.316 µM)
inactive: viability, T/C [4] 88.3% | viability, T/C (second compound 0.0316 µM, first compound 0.1 µM) 67.3% | viability, T/C [6] 52.6% | viability, T/C (second compound 0.0316 µM, first compound 1 µM) 41.9% | viability, T/C (second compound 0.0316 µM, first compound 3.16 µM) 40% | viability, T/C (second compound 0.0316 µM, first compound 10 µM) 30.4% | viability, T/C [10] 87.8% | viability, T/C (second compound 0.1 µM, first compound 0.1 µM) 72.5% | viability, T/C [12] 50.1% | viability, T/C (second compound 0.1 µM, first compound 1 µM) 41.7% | viability, T/C (second compound 0.1 µM, first compound 3.16 µM) 39.2% | viability, T/C (second compound 0.1 µM, first compound 10 µM) 30.7% | viability, T/C [16] 85.5% | viability, T/C (second compound 0.316 µM, first compound 0.1 µM) 69.5% | viability, T/C [18] 51% | viability, T/C (second compound 0.316 µM, first compound 1 µM) 42.2% | viability, T/C (second compound 0.316 µM, first compound 3.16 µM) 38.3% | viability, T/C (second compound 0.316 µM, first compound 10 µM) 31.3% | viability, T/C [22] 86.5% | viability, T/C (second compound 1 µM, first compound 0.1 µM) 65.2% | viability, T/C [24] 51.6% | viability, T/C (second compound 1 µM, first compound 1 µM) 40.8% | viability, T/C (second compound 1 µM, first compound 3.16 µM) 36.1% | viability, T/C (second compound 1 µM, first compound 10 µM) 30.8% | viability, T/C [28] 64.2% | viability, T/C (second compound 3.16 µM, first compound 0.1 µM) 56.1% | viability, T/C [30] 41.7% | viability, T/C (second compound 3.16 µM, first compound 1 µM) 36.6% | viability, T/C (second compound 3.16 µM, first compound 3.16 µM) 37.3% | viability, T/C (second compound 3.16 µM, first compound 10 µM) 27.8% | viability, T/C [34] 65.5% | viability, T/C (second compound 10 µM, first compound 0.1 µM) 56.4% | viability, T/C [36] 41.8% | viability, T/C (second compound 10 µM, first compound 1 µM) 37.4% | viability, T/C (second compound 10 µM, first compound 3.16 µM) 33.4% | viability, T/C (second compound 10 µM, first compound 10 µM) 28.4%
410 nM: IC50 (second compound 0.1 µM)
169 nM: IC50 (second compound 10 µM)
